Measured values as given in US7429578B2, “Tricyclic inhibitors of poly(ADP-ribose) polymerases” (Agouron Pharmaceuticals, Inc., priority 1999, dated 2008).
Values joined by “and” are separate entries in the source; they are usually repeats but may differ in a detail not shown here. Equal values may be shown once. Where a name gives a salt, the structure may show the parent alone. Read-outs that look alike come from different tables or passages of the source.

What was measured:
purified PARP protein = purified PARP protein (Homo sapiens, UniProt P09874); experiment: PARP enzyme inhibition assay; assay type: biochemical
[1] = [32P]NAD+ incorporation, 500 μM NAD+, 25° C., two values in a cell = tested twice, read-out: Inhibition Constant Ki

Chain of purified PARP protein (P09874 whole entry): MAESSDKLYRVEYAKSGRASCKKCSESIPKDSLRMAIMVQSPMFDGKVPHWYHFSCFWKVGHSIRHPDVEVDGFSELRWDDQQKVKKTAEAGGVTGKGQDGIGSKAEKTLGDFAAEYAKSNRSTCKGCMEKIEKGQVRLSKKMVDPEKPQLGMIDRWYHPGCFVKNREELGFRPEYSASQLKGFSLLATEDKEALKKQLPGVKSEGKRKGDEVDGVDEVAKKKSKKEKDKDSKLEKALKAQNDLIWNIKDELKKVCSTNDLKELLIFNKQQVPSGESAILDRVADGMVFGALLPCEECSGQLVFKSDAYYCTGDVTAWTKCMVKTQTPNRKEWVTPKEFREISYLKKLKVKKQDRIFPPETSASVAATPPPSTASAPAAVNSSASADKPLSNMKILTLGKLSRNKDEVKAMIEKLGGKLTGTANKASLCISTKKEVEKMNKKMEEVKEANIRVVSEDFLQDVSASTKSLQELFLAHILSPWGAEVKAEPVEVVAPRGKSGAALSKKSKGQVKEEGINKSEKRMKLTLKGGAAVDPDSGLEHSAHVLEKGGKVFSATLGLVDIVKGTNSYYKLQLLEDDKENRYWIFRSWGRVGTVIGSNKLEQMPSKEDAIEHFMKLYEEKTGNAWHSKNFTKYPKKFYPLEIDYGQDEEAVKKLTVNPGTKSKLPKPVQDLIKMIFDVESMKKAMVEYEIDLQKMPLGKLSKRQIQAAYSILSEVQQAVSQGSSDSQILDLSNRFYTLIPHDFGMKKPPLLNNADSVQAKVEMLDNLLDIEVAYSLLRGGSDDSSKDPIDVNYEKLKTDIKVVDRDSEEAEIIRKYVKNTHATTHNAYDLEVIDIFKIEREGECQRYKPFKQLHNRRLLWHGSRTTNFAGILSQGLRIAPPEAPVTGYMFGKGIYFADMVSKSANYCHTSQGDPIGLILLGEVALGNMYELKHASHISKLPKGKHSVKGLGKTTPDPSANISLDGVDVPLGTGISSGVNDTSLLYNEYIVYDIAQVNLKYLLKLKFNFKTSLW

SMILES | Ki (purified PARP protein; [1]) | melting point | Ki (purified PARP protein; Inhibition Constant Ki) [nM]
O=C1NCCc2c(-c3ccccc3CCCO)[nH]c3cccc1c23 [BBB, 2-[2-(3-Hydroxy-propyl)-phenyl]-1,3,4,5-tetrahydro-azepino[5,4,3-cd]indol-6-one] | 20 nM | 233.5 to 234.5 °C | –
O=C1NCCc2c(-c3cccs3)[nH]c3cccc1c23 [BBBB, 2-Thiophen-2-yl-1,3,4,5-tetrahydro-azepino[5,4,3-cd]indol-6-one] | – | 220.5 to 222.5 °C | –
O=C1NCc2c(-c3ccccc3)[nH]c3cccc1c23 [Compound 3, Phenyl-3,4-dihydropyrrolo[4,3,2-de]isoquinolin-5-(1H)-one] | 2.8 nM | – | –
O=C1NCCc2c[nH]c3cccc1c23 [Compound 10, 3,4,5,6-tetrahydro-1H-azepino[5,4,3-cd]indol-6-one] | 38 nM | – | –
O=C1NCCc2c(Br)[nH]c3cccc1c23 [Compound 11, 2-Bromo-3,4,5,6-tetrahydro-1H-azepino[5,4,3-cd]indol-6-one] | 7.3 nM | – | –
O=C1NCCc2c(C#Cc3ccccc3)[nH]c3cccc1c23 [Compound 17] | 6.5 nM | – | –
Cn1cc2c3c(cccc31)C(=O)NCC2 [Compound 19, 1-N-Methyl-3,4,5,6-tetrahydro-1H-azepino[5,4,3-cd]indol-6-one] | 62 nM | 194 to 195 °C | –
CN(C)Cc1cccc(-c2[nH]c3cccc4c3c2CNC4=O)c1 [Compound 25] | 4 nM | – | –
O=C1NCCc2c(-c3ccccc3)[nH]c3cc(Br)cc1c23 [Compound 26, 8-Bromo-2-phenyl-3,4,5,6-tetrahydro-1H-azepino[5,4,3-cd]indol-6-one] | 22 nM and 18 nM | – | –
O=C1NCCc2c(-c3ccc(C(F)(F)F)cc3)[nH]c3cccc1c23 [Compound 31, 2-(4-Trifluoromethyl-phenyl)-1,3,4,5-tetrahydro-azepino[5,4,3-cd]indol-6-one] | 5 nM | 208 to 209 °C | –
O=C1NCCc2c(-c3cc4ccccc4o3)[nH]c3cccc1c23 [Compound 32, 2-Benzofuran-2-yl-1,3,4,5-tetrahydro-azepino[5,4,3-cd]indol-6-one] | 11.3 nM | 207 °C (dec.) | –
O=C1NCCc2c(-c3cc(C(F)(F)F)cc(C(F)(F)F)c3)[nH]c3cccc1c23 [Compound 33, 2-(3,5-bis-Trifluoromethyl-phenyl)-1,3,4,5-tetrahydro-azepino[5,4,3-cd]indol-6-one] | 230 nM | 230 °C (dec.) | –
CC(C)(C)c1ccc(-c2[nH]c3cccc4c3c2CCNC4=O)cc1 [Compound 36, 2-(4-tert-Butyl-phenyl)-1,3,4,5-tetrahydro-azepino[5,4,3-cd]indol-6-one] | 29 nM | 243 to 244 °C | –
O=C1NCCc2c(-c3ccccc3Cl)[nH]c3cccc1c23 [Compound 38, 2-(2-Chlorophenyl)-1,3,4,5-tetrahydro-azepino[5,4,3-cd]indol-6-one] | 8.4 nM | 275 °C (dec.) | –
O=C1NCCc2c(-c3ccc(F)cc3F)[nH]c3cccc1c23 [Compound 39, 2-(2,4-Difluoro-phenyl)-1,3,4,5-tetrahydro-azepino[5,4,3-cd]indol-6-one] | 4.8 nM | 196 to 197 °C | –
O=C1NCCc2c(-c3cccc(Cl)c3)[nH]c3cccc1c23 [Compound 40, 2-(3-Chlorophenyl)-1,3,4,5-tetrahydro-azepino[5,4,3-cd]indol-6-one] | 5.2 nM | 147 to 149 °C | –
O=C1NCCc2c(-c3cccc4ccccc34)[nH]c3cccc1c23 [Compound 41, 2-Naphthalen-1-yl-1,3,4,5-tetrahydro-azepino[5,4,3-cd]indol-6-one] | – | 305 °C (dec.) | –
O=C1NCCc2c(-c3[nH]c4cccc5c4c3CCNC5=O)[nH]c3cccc1c23 [Compound TTT, 1,3,4,5,1′,3′,4′,5′-Octahydro-[2,2′]bi[azepino[5,4,3-cd]indolyl]-6,6′-dione] | 26 nM | – | –
O=C1NCCc2c(-c3cccnc3)[nH]c3cccc1c23 [HHH, 2-Pyridin-3-yl-1,3,4,5-tetrahydro-azepino[5,4,3-cd]indol-6-one] | – | 260.5 to 262 °C | –
CC(=O)Nc1ccc(F)cc1-c1[nH]c2cccc3c2c1CCNC3=O [NNN, N-[4-Fluoro-2-(6-oxo-3,4,5,6-tetrahydro-1H-azepino[5,4,3-cd]indol-2-yl)-phenyl]-acetamide] | 172 nM | – | –
O=C(NC1CC1)c1[nH]c2cccc3c2c1CCNC3=O [QQQQ, 6-Oxo-1,3,4,5-tetrahydro-1H-azepino[5,4,3-cd]indole-2-carboxylic Acid Cyclopropylamide] | 21 nM | – | –
Nc1cccc(-c2[nH]c3cccc4c3c2CCNC4=O)c1 [RR, 2-(3-Aminophenyl)-3,4,5,6-tetrahydro-1H-azepino[5,4,3-cd]indol-6-one] | 6.9 nM | – | –
O=C1NCCc2c(-c3cccc(CN4CCOCC4)c3)[nH]c3cccc1c23 [SSSS, 2-(3-Morpholin-4-ylmethylphenyl)-3,4,5,6-tetrahydro-1H-azepino[5,4,3-cd]indol-6-one] | 19 nM | – | –
O=C1NN=Cc2c(-c3ccc(Cl)cc3)[nH]c3cccc1c23 [ZZZ, (4-Chloro-phenyl)-1,5-dihydro-[1,2]diazepino[4,5,6-cd]indol-6-one] | 0.7 nM | – | –
O=C1NN=C(C(F)(F)C(F)(F)F)c2c[nH]c3cccc1c23 [ZZZZ, 1,5-Dihydro-3-pentafluoroethyl-[1,2]diazepino[4,5,6-cd]-indol-6-one] | 40 nM | – | –

More lines, now with the values ahead:

Ki (purified PARP protein; [1]) | melting point | Ki (purified PARP protein; Inhibition Constant Ki) [nM] | SMILES
45 nM | – | – | O=C1NCC(c2ccccc2)c2c[nH]c3cccc1c23 (racemic) [Compound 20, (rac)-3-Phenyl-3,4,5,6-tetrahydro-1H-azepino[5,4,3-cd]indol-6-one]
61 nM | – | – | COc1ccc(C2CNC(=O)c3cccc4[nH]cc2c34)cc1 (racemic) [RRRR, (rac)-3-(4-Methoxyphenyl)-3,4,5,6-tetrahydro-1H-azepino[5,4,3-cd]indol-6-one]
11.4 nM | 201 to 201.5 °C | – | COC(=O)CCc1ccccc1-c1[nH]c2cccc3c2c1CCNC3=O [AAA, 3-[2-(6-Oxo-3,4,5,6-tetrahydro-1H-azepino[5,4,3-cd]indol-2-yl)-phenyl]-propionic acid methyl ester]
1.1 nM | – | – | O=C1NN=Cc2c(-c3ccc(F)cc3)[nH]c3cccc1c23 [AAAA]
7.3 nM | 300 °C (dec.) | – | O=C1NCCc2c(-c3ccc(O)cc3)[nH]c3cccc1c23 [CCC, 2-(4-Hydroxy-phenyl)-1,3,4,5-tetrahydro-azepino[5,4,3-cd]indol-6-one]
4.8 nM | 255 to 256 °C | – | O=C1NCCc2c(-c3ccsc3)[nH]c3cccc1c23 [CCCC, 2-Thiophen-3-yl-1,3,4,5-tetrahydro-azepino[5,4,3-cd]indol-6-one]
1.4 nM | – | – | O=C1NCCc2c(-c3cccc([N+](=O)[O-])c3)[nH]c3cccc1c23 [Compound 14, 2-(3-Nitrophenyl)-3,4,5,6-tetrahydro-1H-azepino[5,4,3-cd]indol-6-one]
> 1000 nM | – | – | Cn1c(-c2ccccc2)c2c3c(cccc31)C(=O)NCC2 [Compound 18, 1-Methyl-2-phenyl-3,4,5,6-tetrahydro-1H-azepino[5,4,3-cd]indol-6-one]
– | 175 to 177 °C | – | CN1CCc2c(-c3ccccc3)n(C)c3cccc(c23)C1=O [Compound 18a, 1,5-dimethyl-2-phenyl-3,4,5,6-tetrahydro-1H-azepino[5,4,3-cd]indol-6-one]
3.9 nM | 160 °C (dec.) | – | O=C1NCCc2c(-c3ccc(Br)cc3)[nH]c3cccc1c23 [Compound 34, 2-(4-Bromophenyl)-1,3,4,5-tetrahydro-azepino[5,4,3-cd]indol-6-one]
3.8 nM and 5.8 nM | – | – | O=C1NCCc2c(-c3ccc(F)c(Cl)c3)[nH]c3cccc1c23 [Compound 35, 2-(3-Chloro-4-fluoro-phenyl)-1,3,4,5-tetrahydro-azepino[5,4,3-cd]indol-6-one]
24 nM | 207 to 208 °C | – | O=C1NCCc2c(CCc3ccccc3)[nH]c3cccc1c23 [Compound 37, 2-Phenethyl-1,3,4,5-tetrahydro-azepino[5,4,3-cd]indol-6-one]
5.1 nM | 266 to 267 °C | – | COC(=O)c1[nH]c2cccc3c2c1CCNC3=O [Compound 42, 6-Oxo-3,4,5,6-tetrahydro-1H-azepino[5,4,3-cd]indole-2-carboxylic acid methyl ester]
2.6 nM | – | – | O=C1NCCc2c(I)[nH]c3cccc1c23 [Compound 43, 2-Iodo-1,3,4,5-tetrahydro-azepino[5,4,3-cd]indol-6-one]
– | – | 7.7 | O=C1NCCc2c(-c3ccc[nH]3)[nH]c3cccc1c23 [DDDD, 2-(1H-Pyrrol-2-yl)-1,3,4,5-etatrhydro-azepino[5,4,3-cd]indol-6-one]
222 nM | – | – | O=C(O)c1[nH]c2cccc3c2c1CCNC3=O [KKK, 6-Oxo-3,4,5,6-tetrahydro-1H-azepino[5,4,3-cd]indole-2-carboxylic acid sodium salt]
– | 320 to 322 °C (dec.) | – | O=C(Nc1ccccc1)c1[nH]c2cccc3c2c1CCNC3=O [KKKK, 6-Oxo-1,3,4,5-tetrahydro-1H-azepino[5,4,3-cd]indole-2-carboxylic Acid Phenylamide]
8.6 nM | – | – | O=C(Nc1ccc(Cl)cc1)c1[nH]c2cccc3c2c1CCNC3=O [LLLL, 6-Oxo-1,3,4,5-tetrahydro-1H-azepino[5,4,3-cd]indole-2-carboxylic acid (4-chlorophenyl)-amide]
16 nM | – | – | O=C(Nc1ccc2ccccc2c1)c1[nH]c2cccc3c2c1CCNC3=O [MMMM, 6-Oxo-1,3,4,5-tetrahydro-1H-azepino[5,4,3-cd]indole-2-carboxylic Acid naphthalen-2-ylamide]
– | 315 to 317 °C (dec.) | – | O=C1NCCc2c(-c3ccc4[nH]ccc4c3)[nH]c3cccc1c23 [VVV, 2-(1H-Indol-5-yl)-1,3,4,5-tetrahydro-azepino[5,4,3-cd]indol-6-one]
5.7 nM | – | – | O=C1NCCc2c(-c3ccc(CO)cc3)[nH]c3cccc1c23 [WWWW, 2-(4-Hydroxymethylphenyl)-3,4,5,6-tetrahydro-1H-azepino[5,4,3-cd]indol-6-one]
9 nM | – | – | O=C1NN=C(c2ccc(C(F)(F)F)cc2)c2c[nH]c3cccc1c23 [YYYY]
